We go through 3 molecules from patent EP0872233A1, “Antiretroviral compositions with improved bioavailability” (JANSSEN PHARMACEUTICA N.V., priority 1997, dated 1998).

One data set in a line: solubility in water. The class given is physicochemical. The note with it: room temperature, pH of 6.5, racemic free base.
Data set [1] in a line: thermal stability at melt-extrusion temperatures. The class given is physicochemical. As to conditions: temperatures up to 300°C. As to the method: One of the most important parameters of melt extrusion is the temperature at which the melt-extruder is operating. […] At temperatures lower than 120°C, loviride will not dissolve sufficiently in most water-soluble polymers and the extrudate will not have the required bioavailability. In addition, the process is difficult because of the high viscosity of the mixture. At temperatures of more than 300°C the water-soluble polymer may decompose to an unacceptable level.

The conditions of data set [2]: in vivo.
On the set-up of data set [3]: AUClast: dose or concentration left out as unconfirmed. The note with it: for Cmax: human, in vivo, po, 100 mg. Here is the method: In this study 12 healthy volunteers in fasting conditions were administered a tablet of example 1 (100 mg loviride). Plasma levels of each of the loviride enantiomers were determined and the following bioavailability data were calculated therefrom.

Regarding `CC(=O)c1ccc(C)cc1NC(C(N)=O)c1c(Cl)cccc1Cl` (racemic) [loviride, (±)-α-[(2-acetyl-5-methylphenyl)amino]-2,6-dichlorobenzeneacetamide], the solubility entry in “solubility in water” was “less than 0.1 mg/100ml”. Also, in data set [1], the thermal stability result is reported as “thermally very stable”. In addition, the half-life entry in data set [2] is “short”.

The Cmax is the maximum level reached in the sampled fluid or tissue. For the molecule `CC(=O)c1ccc(C)cc1NC(C(N)=O)c1c(Cl)cccc1Cl` (single isomer, unassigned; (+)) [(+)-loviride], in data set [3], the AUClast is 18,180 ± 7,197 ng.h/ml and the Cmax came to 890 ± 292 ng/mL.

`CC(=O)c1ccc(C)cc1NC(C(N)=O)c1c(Cl)cccc1Cl` (single isomer, unassigned; (-)) [(-)-loviride]: in data set [3], the AUClast is listed as 1,347 ± 512 ng.h/ml and the Cmax was determined as 155 ± 66 ng/mL.
